Assay results from US12364721B2, “Compositions and methods for treatment of inflammatory and immune diseases” (Prolacta Bioscience, Inc., priority 2019, dated 2025).

How the values were obtained:
[1] = tested on: B. longum subsp. infantis; test: Viability of B. longum subsp. infantis after exposure to acid reducing compounds (anaerobic CFU); format: cell-based; conditions: 1 μg/ml and 0.5 μg/ml in citrate buffer (pH 5), 3 hours at 37° C.; with respect to buffer only controls
Method: Viability of B. longum subsp. infantis following exposure to various acid reducing compounds was examined. The benzimidazole derivative compounds omeprazole, esomeprazole, lansoprazole, pantoprazole, and rabeprazole and the H2 receptor antagonist famotidine were suspended in citrate buffer (pH 5) to concentrations of 1 μg/ml and 0.5 μg/ml. An amount of 2.4×10^8 colony forming units (CFU) B. longum subsp. infantis was pelleted and resuspended in each of the citrate buffer and drug solutions. Controls included 2.4×10^8 CFU B. longum subsp. infantis added to citrate buffer alone. Cells were incubated for 3 hours at 37° C. and then plated under anaerobic conditions. Anaerobic CFU were quantified to assess viability.

[2] = tested on: B. longum subsp. infantis; test: Growth of B. longum subsp. infantis in the presence of acid-reducing compounds (OD600); format: cell-based; conditions: 24 hours; 125 μg/mL; versus vehicle controls
Method: Growth of B. longum subsp. infantis was assessed in the presence of various acid-reducing compounds, including proton pump inhibitor (PPI) compounds and an H2 receptor antagonist. Stock solutions were prepared by adding 10 mg/mL omeprazole, esomeprazole, lansoprazole, pantoprazole, rabeprazole, and famotidine to DMSO. The stock solutions were diluted 1:4 in PBS and then added in 2-fold serial dilutions to Reinforced Clostridial Media (RCM). The media was then inoculated with 5×10^5 colony forming units (CFU) of B. longum subsp. infantis and incubated under anaerobic conditions at 37° C. Vehicle only control groups consisted of 5×10^5 CFU B. longum subsp. infantis incubated in RCM with the same amounts of PBS and DMSO as the PPI conditions for each dose.

Cc1c(OCC(F)(F)F)ccnc1C[S+]([O-])c1nc2ccccc2[nH]1 (centres unmarked) [lansoprazole]
anaerobic CFU counts [1]: generally higher | OD600 values [2]: reduced OD600 values with respect to vehicle controls
